In series [1] the test system is total white cells, granulocytes, and platelets. Put plainly: Example 2: L-NAC and D-NAC on rat blood counts after buthionine sulfoximine and tri-drug chemotherapy. The series is classed as in vivo. The conditions noted are these: pretreatment; rats pretreated with buthionine sulfoximine, tri-drug chemotherapy. From the text: In the experiment shown in FIG. 4, rats were pretreated With buthionine sulfoximine to enhance the bone marrow toxicity of chemotherapy, and then treated with the tri-drug chemotherapy regimen with or without L-NAC or D-NAC.

A further series can be described thus: in vivo. The conditions noted are these: Long Evans, rat, maximum tolerated dose. As for the experimental part: (§1) Osmotic Blood-Brain Barrier Disruption. Anesthesia was induced with 5% isoflurane and maintained with propofol (650 μg/kg/min). Mannitol (25%, 37° C.) was infused cephalad into the left internal carotid artery via a left external carotid catheter (Remsen et al., Anesthesia Analgesia 88:559-67, 1999).
(§2) Aortic Infusion Technique. The left internal carotid artery was temporarily occluded, and agents were administered retrograde to the descending aorta through a left external carotid catheter (Neuwelt et al., Cancer Res 61:7868-74, 2001).
N-Acetylcysteine Toxicity. N-Acetyl-L-cysteine (N-acetylcysteine, Mucomyst; Roxane Laboratories, Inc., Columbus, Ohio) was given by aortic infusion 30 min (n=7) or 60 min (n=10) before blood brain barrier disruption in normal Long Evans rats. Doses ranged from 400 to 1500 mg/kg in 3 ml infused at 0.6 ml/min. Rats were sacrificed 6 days after treatment or at signs of acute neurotoxicity (head tilt, circling, moribund).

Series [2] has as its system total white cells, granulocytes, and platelets. Put plainly: Major tumor study: blood counts after tri-drug chemotherapy with or without chemoprotection. The series is classed as in vivo, nude rats. As for the experimental part:
as §1, §2

A short description of series [3]: N-Acetylcysteine clearance from rat blood (serum concentration, colorimetric kit and HPLC). The class given is in vivo, Long Evans rats. As to the method:
N-Acetylcysteine Clearance. […] Blood samples (0.5 ml) were collected 5, 15, 30, 60, and 90 min after thiol administration, and serum was evaluated for N-acetylcysteine concentration. Serum N-acetylcysteine concentrations were measured using the Bioxytech GSH-400 colorimetric kit (Oxis Research, Portland, Oreg.). The colorimetric assay was validated by high-pressure liquid chromatography (HPLC) analysis of serum thiols for n=2 rats from groups B and D. Deproteinated serum samples were diluted in 160 mM KH2PO4, pH 3. Thiols were measured by electrochemical detection using a Waters radial compression module with 10-μm C18 column (Waters, Milford, Mass.), an ESA 5010 analytical cell, and an ESA 5100A coulochem detector (ESA Inc., Chelmsford, Mass.). Area under the curve was compared with known concentrations prepared in control sera.

The conditions of series [4]: previously reported (Neuwelt et al. 1998); cited from earlier work.
Another series deals with bone marrow. Particulars: administered immediately after chemotherapy, alone or in combination with N-acetylcysteine (Neuwelt et al. 2001); cited from earlier work.
The test system of the next series is platelets. Particulars: 8 g/m^2 intravenous 2, 4, or 8 h after high-dose carboplatin; blood counts 6 days after chemotherapy.
[5] abbreviates: 1000 mg/kg by aortic infusion, 60 min before chemotherapy.

Structures are written as SMILES. Like-named read-outs stand apart in the source and are kept apart here.

For the compound `CC(=O)N[C@H](CS)C(=O)O` [D-NAC, N-acetyl-D-cysteine], the “bone marrow chemoprotective activity (total white cells, granulocytes, and platelets)” value in series [1] was “not bone marrow protective”.

In general, MTD refers to the largest dose that counted as tolerated. Low values mean poorer tolerability, high ones better tolerability. What is called half-life is the time needed for the level to fall by half in the phase considered. Turning to `CC(=O)N[C@@H](CS)C(=O)O` [N-acetylcysteine, N-acetyl-L-cysteine], the maximum tolerated dose (MTD) at 6 days in the series “in vivo” (aortic infusion 30 min before blood-brain barrier disruption) came to 500 mg/kg; in the series “in vivo” (aortic infusion 60 min before blood-brain barrier disruption) it was 1000 mg/kg. Also, the “bone marrow chemoprotective activity (total white cells, granulocytes, and platelets)” value in series [1] was “significantly reduced chemotherapy toxicity”. The protection for granulocytes result in series [2] (setting [5]) is listed as “significantly protective”. For the same compound, the “protection for white cells” value in series [2] (setting [5]) is given as “significantly protective”. Further, in series [2] (N-acetylcysteine alone, 1000 mg/kg by aortic infusion, 60 min before chemotherapy), the platelet chemoprotection entry is recorded as “not significant”. This compound also registered a maximum blood concentration in series [3] (1000 mg/kg intra-arterially, 5 min after infusion) of 11.2 ± 1.3 mM. Further, in series [3] (1000 mg/kg intra-arterially, 60 min after infusion), the “blood concentration at the time of chemotherapy delivery” value amounted to 200 ± 100 µM. Also, in series [3] (Long Evans, rat, serum, other: intravenous or aortic infusion (all groups), all groups: 140-1200 mg/kg, intravenous or aortic infusion), the half-life lay in the range of 9 to 11 min.

Take `O=S([O-])([O-])=S.[Na+].[Na+]` [sodium thiosulfate]: the half-life in series [4] is listed as 15 min. Also, in the series on bone marrow, the “bone marrow chemoprotective activity” value is “minimal bone marrow chemoprotective activity”. Further, the platelet chemoprotection result with platelets was “delaying sodium thiosulfate administration improved platelet chemoprotection”. The “protection against chemotherapy-induced bone marrow suppression” value in series [2] (sodium thiosulfate 8 g/m^2 4 and 8 h after chemotherapy, with or without N-acetylcysteine 1000 mg/kg 60 min before) is recorded as “minimal protective effect”.
